In PMC3435245, “D-Alanylation of Lipoteichoic Acids Confers Resistance to Cationic Peptides in Group B Streptococcus by Increasing the Cell Wall Density” (PLoS Pathogens, 2012):
Values after ≈ are worked out from the molar mass of the structure shown. Where a SMILES comes first, the peptide text is derived from it. Bridges are numbered along the chain shown (N, C = ends). [ ]: non-standard residue; d: D form. The star is where a group is joined. Heptanoyl(6-Me) = CC(C)CCCCC(=O)*; X1 = CC[C@H](C)CCCCC(=O)*; Dab = NCC[C@H](N)C(=O)O

How the values were obtained:
[1] = RP-HPLC hydrophobicity (% AcN at elution); type: physicochemical; details: chromatographic, C4 reverse analytical column; eluted in 40 min, linear gradient of acetonitrile 30 to 70% v/v in water containing TFA (0.05% v/v)
Description: The procedure conducted as described previously. Briefly, peptides were synthesized using the Fmoc solid phase method on Rink amide resin ([…]). For fluorescent labeling of the N-terminus of the peptides, resin-bound peptides were treated with NBD or rhodamine dissolved in dimethyl formamide (DMF), washed thoroughly with DMF and then with methylene chloride, dried and then cleaved. […] The peptides were subjected to amino acid and mass spectrometry analysis to confirm their composition.

[2] = tested on: GBS NEM316 WT strain; type: cell-based, Streptococcus agalactiae; details: Todd-Hewitt broth with 100 mM HEPES, 2×10^6 CFU, 96-well polypropylene microplate, overnight 37°C, OD600 nm; average of triplicate measurements
Description: (§1) The MICs of each antimicrobial peptide were tested in Todd-Hewitt broth (THB) buffered with 100 mM HEPES in 96-well polypropylene microplates (Costar, Cambridge, MA) by a dilution method. Bacteria (2×10^6 CFU) were added in triplicates to wells containing increasing concentrations of the antimicrobial peptides. Plates were incubated at 37°C with shaking overnight and then read (OD600 nm) using microplate reader (Labsystems Multiskanat) for bacterial growth. The MICs90 was considered to be the peptide concentration that inhibited 90% growth.

[3] = tested on: GBS ΔdltA mutant; assay: MIC90 by dilution method, GBS ΔdltA; type: cell-based, Streptococcus agalactiae; details: for MIC90, ΔdltA: Todd-Hewitt broth with 100 mM HEPES, 2×10^6 CFU, 96-well polypropylene microplate, overnight 37°C, OD600 nm, average of triplicate measurements; for more active against the dltA mutant compared to the WT (fold dilution): from MICs of Table 2, statement for all natural peptides; for fold more active on the dltA mutant compared to the WT: from MICs, WT versus dltA mutant
Description: as §1

[4] = tested on: GBS ΔmprF mutant; assay: MIC90 by dilution method, GBS ΔmprF; type: cell-based, Streptococcus agalactiae; details: Todd-Hewitt broth with 100 mM HEPES, 2×10^6 CFU, 96-well polypropylene microplate, overnight 37°C, OD600 nm; average of triplicate measurements
Description: as §1

[5] = tested on: GBS Δlgt Δlsp mutant; assay: MIC90 by dilution method, GBS Δlgt Δlsp; type: cell-based, Streptococcus agalactiae; details: Todd-Hewitt broth with 100 mM HEPES, 2×10^6 CFU, 96-well polypropylene microplate, overnight 37°C, OD600 nm; average of triplicate measurements
Description: as §1

[6] = tested on: GBS ΔcpsD mutant; assay: MIC90 by dilution method, GBS ΔcpsD; type: cell-based, Streptococcus agalactiae; details: Todd-Hewitt broth with 100 mM HEPES, 2×10^6 CFU, 96-well polypropylene microplate, overnight 37°C, OD600 nm; average of triplicate measurements
Description: as §1

[7] = tested on: GBS ΔsrtA mutant; assay: MIC90 by dilution method, GBS ΔsrtA; type: cell-based, Streptococcus agalactiae; details: Todd-Hewitt broth with 100 mM HEPES, 2×10^6 CFU, 96-well polypropylene microplate, overnight 37°C, OD600 nm; average of triplicate measurements
Description: as §1

| SMILES | Hydrophobicity (% AcN) [1] [% AcN] | MIC90, WT [2] [µM] | MIC90, ΔdltA [3] [µM] | MIC90, ΔmprF [4] [µM] | MIC90, Δlgt Δlsp [5] [µM] | MIC90, ΔcpsD [6] [µM] | MIC90, ΔsrtA [7] [µM] | more active against the dltA mutant compared to the WT (fold dilution) [3] [fold dilution] | fold more active on the dltA mutant compared to the WT [3] [fold] |
| --- | --- | --- | --- | --- | --- | --- | --- | --- | --- |
| CC(C)C[C@H](NC(=O)[C@H](CC(C)C)NC(=O)[C@H](CCCCN)NC(=O)[C@H](CC(C)C)NC(=O)[C@H](CC(C)C)NC(=O)[C@H](CCCCN)NC(=O)[C@H](CCCCN)NC(=O)[C@H](CC(C)C)NC(=O)[C@H](CC(C)C)NC(=O)[C@H](CCCCN)NC(=O)[C@H](CCCCN)NC(=O)[C@H](CC(C)C)NC(=O)[C@H](CC(C)C)NC(=O)[C@H](CCCCN)NC(=O)[C@@H](N)CC(C)C)C(N)=O [K6L9] (H-LKLLKKLLKKLLKLL-NH2; N-terminus assumed) | 67.2 | 35.5 (≈ 64.1 µg/mL) | 17.7 (≈ 31.9 µg/mL) | 17.7 (≈ 31.9 µg/mL) | 17.7 (≈ 31.9 µg/mL) | 35.5 (≈ 64.1 µg/mL) | 35.5 (≈ 64.1 µg/mL) | – | – |
| CC[C@H](C)CCCCC(=O)N[C@@H](CCN)C(=O)N[C@H](C(=O)N[C@@H](CCN)C(=O)N[C@H]1CCNC(=O)[C@H]([C@@H](C)O)NC(=O)[C@H](CCN)NC(=O)[C@H](CCN)NC(=O)[C@H](CC(C)C)NC(=O)[C@@H](Cc2ccccc2)NC(=O)[C@H](CCN)NC1=O)[C@@H](C)O [Polymyxin B] (X1-[Dab]T[Dab][Dab][Dab][dF]L[Dab][Dab]T; lactam 4-C (inferred); N-terminus assumed) | 53.2 | 92.4 (≈ 111 µg/mL) | 5.8 (≈ 6.98 µg/mL) | 92.4 (≈ 111 µg/mL) | 92.4 (≈ 111 µg/mL) | 92.4 (≈ 111 µg/mL) | 92.4 (≈ 111 µg/mL) | > 2 | 8 |
| CC(C)CCCCC(=O)N[C@@H](CCN)C(=O)N[C@H](C(=O)N[C@@H](CCN)C(=O)N[C@H]1CCNC(=O)[C@H]([C@@H](C)O)NC(=O)[C@H](CCN)NC(=O)[C@H](CCN)NC(=O)[C@H](CC(C)C)NC(=O)[C@@H](CC(C)C)NC(=O)[C@H](CCN)NC1=O)[C@@H](C)O ({Heptanoyl(6-Me)}-[Dab]T[Dab][Dab][Dab][dL]L[Dab][Dab]T; lactam 4-C; N-terminus assumed) | – | >221.6 | 13.9 (≈ 16.1 µg/mL) | >221.6 | >221.6 | >221.6 | >221.6 | > 2 | 8 |
| CC(C)C[C@H](NC(=O)[C@H](CC(C)C)NC(=O)[C@H](CCCCN)NC(=O)[C@H](CC(C)C)NC(=O)[C@H](CC(C)C)NC(=O)[C@H](CC(C)C)NC(=O)[C@H](CCCCN)NC(=O)[C@H](CC(C)C)NC(=O)[C@H](CC(C)C)NC(=O)[C@H](CCCCN)NC(=O)[C@@H](N)CCCCN)C(=O)N[C@@H](CCCCN)C(N)=O [K5L7] (H-KKLLKLLLKLLK-NH2) | – | 25 (≈ 36.3 µg/mL) | 25 (≈ 36.3 µg/mL) | – | – | – | – | – | – |
